Source: patent US20220132846A1, “1-PYRIDYL-PYRAZOLYL AMIDE COMPOUNDS AND PREPARATION AND USES THEREOF” (HUNAN RESEARCH INSTITUTE OF CHEMICAL INDUSTRY CO., LTD., priority 2019, published 2022)

How the values were obtained:
[1] = system: Armyworm (Mythimna separata (Walker)); assay: Test against armyworm, Potter tower method; type: in vivo; settings: Mythimna separata, third-instar larvae, after 72 hours, read-out: Activity (mortality) level against armyworm; for mortality at 50 µg/mL: 50 mg/L; for mortality at 500 µg/mL: 500 mg/L
Protocol: Potter tower method: the test compound was dissolved in an appropriate solvent such as N,N-dimethylformamide, and then diluted with 0.2% aqueous solution of Tween 80 to the desired concentration, Those without the test compounds were set as blank controls. The fresh and tender corn leaves were taken and cut into fragments of basically the same size, then put into a Petri dish (diameter 90 mm) padded with filter paper in advance. Ten third-instar larvae of test insects were transferred into the dish and then placed under the Potter spray tower for being sprayed, each concentration treatment was sprayed at the amount of 1 mL and replicated 3 times. The dish was covered and then placed in a chamber for culture and observed regularly, after 72 hours, the dead insects was investigated and recorded and the mean mortality was calculated. […]

Aphis fabae = assay: Test against aphid, leaf dip method (Aphis fabae); type: in vivo; settings: foliar, after 24 hours, read-out: Activity (mortality) level against Aphis fabae; for mortality at 12.5 µg/mL: 12.5 mg/L; for mortality at 50 µg/mL: 50 mg/L; for mortality at 200 µg/mL: 200 mg/L; for mortality at 500 µg/mL: 500 mg/L
Protocol: For evaluating the activity of the compounds of this invention against Homoptera pests, Aphis fabae, wheat aphids, etc. were selected as the test insects, and the activity of the compounds of this invention against aphids was measured by leaf dip method indoors.
Leaf dip method (Aphis fabae): the test compound was dissolved in an appropriate solvent such as N,N-dimethylformamide, and then diluted with 0.2% aqueous solution of Tween 80 to the desired concentration, Those without the test compounds were set as blank controls, the treatments were replicated 3 times. Horsebean seedlings with no less than twenty 3-day-old Aphis fabae per plant was cut from the stem, 5 horsebean seedlings with the insects were dipped in the test solution for 5 seconds, then inserted into a sponge filled with water after sucked dry using filter paper, then covered with a glass tube and placed in a chamber for culture. After 24 hours, the number of living and dead insects were investigated and the results were averaged. […]

CCCN(C(=O)c1cc(Br)nn1-c1ncccc1Cl)c1c(Br)cc(Cl)cc1C(=O)N(C)C [Compound 41, N-[2-bromo-4-chloro-6-[(dimethylamino)carbonyl]phenyl]-N-propyl-1-(3-chloro-2-pyridinyl)-3-bromo-1H-pyrazole-5-carboxamide]
90 to 100%: mortality at 50 µg/mL [1] | mortality at 500 µg/mL [1] | mortality at 12.5 µg/mL (Aphis fabae) | mortality at 50 µg/mL (Aphis fabae) | mortality at 200 µg/mL (Aphis fabae) | mortality at 500 µg/mL (Aphis fabae)

CNC(=O)c1cc(Cl)cc(C)c1N(C)C(=O)c1cc(Br)nn1-c1ncccc1Cl [Compound 42, N-[2-methyl-4-chloro-6-[(methylamino)carbonyl]phenyl]-N-methyl-1-(3-chloro-2-pyridinyl)-3-bromo-1H-pyrazole-5-carboxamide]
90 to 100%: mortality at 12.5 µg/mL ([1]; 12.5 mg/L) | mortality at 50 µg/mL [1] | mortality at 500 µg/mL [1] | mortality at 12.5 µg/mL (Aphis fabae) | mortality at 50 µg/mL (Aphis fabae) | mortality at 200 µg/mL (Aphis fabae) | mortality at 500 µg/mL (Aphis fabae)

CCNC(=O)c1cc(Cl)cc(C)c1N(C)C(=O)c1cc(Br)nn1-c1ncccc1Cl [Compound 43, N-[2-methyl-4-chloro-6-[(ethylamino)carbonyl]phenyl]-N-methyl-1-(3-chloro-2-pyridinyl)-3-bromo-1H-pyrazole-5-carboxamide]
90 to 100%: mortality at 50 µg/mL [1] | mortality at 500 µg/mL [1] | mortality at 500 µg/mL (Aphis fabae)

Cc1cc(Cl)cc(C(=O)N(C)C)c1N(C)C(=O)c1cc(Br)nn1-c1ncccc1Cl [Compound 44, N-[2-methyl-4-chloro-6-[(dimethylamino)carbonyl]phenyl]-N-methyl-1-(3-chloro-2-pyridinyl)-3-bromo-1H-pyrazole-5-carboxamide]
90 to 100%: mortality at 50 µg/mL [1] | mortality at 500 µg/mL [1] | mortality at 500 µg/mL (Aphis fabae)

CCN(C)C(=O)c1cc(Cl)cc(C)c1N(C)C(=O)c1cc(Br)nn1-c1ncccc1Cl [Compound 45, N-[2-methyl-4-chloro-6-[(methyl(ethyl)amino)carbonyl]phenyl]-N-methyl-1-(3-chloro-2-pyridinyl)-3-bromo-1H-pyrazole-5-carboxamide]
90 to 100%: mortality at 500 µg/mL [1] | mortality at 500 µg/mL (Aphis fabae)

CCCN(C)C(=O)c1cc(Cl)cc(C)c1N(C)C(=O)c1cc(Br)nn1-c1ncccc1Cl [Compound 46, N-[2-methyl-4-chloro-6-[(methyl(propyl)amino)carbonyl]phenyl]-N-methyl-1-(3-chloro-2-pyridinyl)-3-bromo-1H-pyrazole-5-carboxamide]
90 to 100%: mortality at 50 µg/mL [1] | mortality at 500 µg/mL [1] | mortality at 200 µg/mL (Aphis fabae) | mortality at 500 µg/mL (Aphis fabae)

Cc1cc(Cl)cc(C(=S)N(C)C)c1N(C)C(=O)c1cc(Br)nn1-c1ncccc1Cl [Compound 47, N-[2-methyl-4-chloro-6-[(dimethylamino)thioxomethyl]phenyl]-N-methyl-1-(3-chloro-2-pyridinyl)-3-bromo-1H-pyrazole-5-carboxamide]
90 to 100%: mortality at 50 µg/mL [1] | mortality at 500 µg/mL [1] | mortality at 12.5 µg/mL (Aphis fabae) | mortality at 50 µg/mL (Aphis fabae) | mortality at 200 µg/mL (Aphis fabae) | mortality at 500 µg/mL (Aphis fabae)

CCN(CC)C(=O)c1cc(Br)cc(C)c1N(C)C(=O)c1cc(Br)nn1-c1ncccc1Cl [Compound 48, N-[2-methyl-4-bromo-6-[(diethylamino)carbonyl]phenyl]-N-methyl-1-(3-chloro-2-pyridinyl)-3-bromo-1H-pyrazole-5-carboxamide]
90 to 100%: mortality at 50 µg/mL [1] | mortality at 500 µg/mL [1] | mortality at 500 µg/mL (Aphis fabae)
